Measurements as given in publication PMC8211267, “Potent PDE4 inhibitor activates AMPK and Sirt1 to induce mitochondrial biogenesis” (PLoS ONE, 2021).

Target: PDE4D (Homo sapiens, UniProt Q08499)
Assay: recombinant PDE4 activity assay, [3H]cAMP hydrolysis, dose-response
Type: biochemical

PDE4D, sequence (Q08499 whole entry): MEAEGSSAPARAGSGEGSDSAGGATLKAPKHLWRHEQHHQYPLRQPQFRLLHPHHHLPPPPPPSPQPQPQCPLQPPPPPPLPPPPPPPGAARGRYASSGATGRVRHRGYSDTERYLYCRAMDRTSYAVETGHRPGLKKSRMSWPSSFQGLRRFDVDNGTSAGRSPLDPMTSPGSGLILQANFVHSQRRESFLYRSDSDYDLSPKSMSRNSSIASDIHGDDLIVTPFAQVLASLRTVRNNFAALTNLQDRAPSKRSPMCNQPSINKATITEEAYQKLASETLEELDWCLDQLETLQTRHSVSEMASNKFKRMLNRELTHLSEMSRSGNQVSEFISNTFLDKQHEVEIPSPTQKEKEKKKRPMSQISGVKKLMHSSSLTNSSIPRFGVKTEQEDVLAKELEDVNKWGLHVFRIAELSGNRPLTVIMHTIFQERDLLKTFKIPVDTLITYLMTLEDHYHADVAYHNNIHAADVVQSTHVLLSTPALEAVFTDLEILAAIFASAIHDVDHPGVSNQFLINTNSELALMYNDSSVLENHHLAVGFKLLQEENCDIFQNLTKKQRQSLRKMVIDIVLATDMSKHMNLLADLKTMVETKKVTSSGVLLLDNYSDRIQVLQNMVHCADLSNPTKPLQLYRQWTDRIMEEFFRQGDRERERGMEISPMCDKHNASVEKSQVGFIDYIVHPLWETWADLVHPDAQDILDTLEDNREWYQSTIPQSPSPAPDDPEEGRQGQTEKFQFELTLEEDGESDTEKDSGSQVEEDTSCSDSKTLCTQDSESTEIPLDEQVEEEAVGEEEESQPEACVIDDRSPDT

SMILES: COc1ccc(C(=O)Nc2ccccc2C)cc1OC [CBU91, 3,4-dimethoxy-N-(o-tolyl)benzamide]
- IC50: ~0.45 µM
